This note sets out measurements from ChEMBL document CHEMBL2062441, “An Orally Available 3-Ethoxybenzisoxazole Capsid Binder with Clinical Activity against Human Rhinovirus” (ACS Med Chem Lett, 2012).

In brackets after ≈: the same amount, converted by molar mass.

Series [1] deals with Human rhinovirus sp. The experiment in a line: Antirhinoviral activity against Human rhinovirus 14 infected in human HeLa cells assessed as inhibition of virus-induced cytopathic effect after 5 days by MTT assay. It counts as functional, organism-based. Particulars: Human rhinovirus sp., 14, HeLa, 120 h. In general terms: Protection from cytopathic effect is a common read-out in antiviral testing.

Series [2] concerns rhinovirus A2. Description: Antirhinoviral activity against Human rhinovirus 2 infected in human HeLa cells assessed as inhibition of virus-induced cytopathic effect after 5 days by MTT assay. It counts as functional, organism-based. Particulars: Rhinovirus A, 120 h.
Series [3] has as its system Human rhinovirus sp. The experiment in a line: Antirhinoviral activity against Human rhinovirus B infected in human HeLa cells assessed as inhibition of virus-induced cytopathic effect after 5 days by MTT assay. It counts as functional, organism-based. The note with it: 120 h.
Series [4] has as its system Human rhinovirus sp. Description: Antirhinoviral activity against antiviral-resistant Human rhinovirus B infected in human HeLa cells assessed as inhibition of virus-induced cytopathic effect after 5 days by MTT assay. The note with it: 120 h. It counts as functional, organism-based.
For series [5], the system named is Human rhinovirus sp. The experiment in a line: Antirhinoviral activity against minor receptor-resistant Human rhinovirus infected in human HeLa cells assessed as inhibition of virus-induced cytopathic effect after 5 days by MTT assay. It counts as functional, organism-based. The note with it: 120 h.
Series [6] deals with Human rhinovirus sp. Description: Antirhinoviral activity against major receptor-resistant Human rhinovirus infected in human HeLa cells assessed as inhibition of virus-induced cytopathic effect after 5 days by MTT assay. It counts as functional, organism-based. The note with it: 120 h.
In series [7] the test system is Human rhinovirus sp. Description: Ratio of EC50 for major receptor-resistant Human rhinovirus B to EC50 for minor receptor-resistant Human rhinovirus A. It counts as functional.
Series [8] deals with Human rhinovirus sp. The experiment in a line: Ratio of EC50 for antiviral-resistant Human rhinovirus B to EC50 for antiviral-resistant Human rhinovirus A. It counts as functional.
Series [9] relates to Human rhinovirus sp. Description: Antirhinoviral activity against antiviral-resistant Human rhinovirus A infected in human HeLa cells assessed as inhibition of virus-induced cytopathic effect after 5 days by MTT assay. Particulars: 120 h. It counts as functional, organism-based.
Series [10] relates to Human rhinovirus sp. Description: Ratio of EC50 for Human rhinovirus B to EC50 for Human rhinovirus A. It counts as functional.
Series [11] has as its system Human rhinovirus sp. Description: Antirhinoviral activity against Human rhinovirus A infected in human HeLa cells assessed as inhibition of virus-induced cytopathic effect after 5 days by MTT assay. The note with it: 120 h. It counts as functional, organism-based.
The nature of series [12]: Half life in male beagle dog at 50 mg/kg, po. The note with it: in vivo.
The nature of series [13]: Half life in female lister hooded rat at 50 mg/kg, po. Particulars: in vivo.
Series [14] in a line: in vivo. The note with it: male, Lister hooded, rat, po, 50 mg/kg.
Description: Oral bioavailability in male lister hooded rat at 50 mg/kg administered as single dose
A short description of series [15]: in vivo. The note with it: male, beagle, dog, plasma, po, 50 mg/kg.
Description: AUC in male beagle dog at 50 mg/kg, po
Series [16] is described as follows: in vivo. Particulars: male, beagle, dog, po, 50 mg/kg.
Description: Tmax in male beagle dog at 50 mg/kg, po
The nature of series [17]: Half life in human at 400 mg administered as single dose. The note with it: in vivo.
A short description of series [18]: Tmax in human at 400 mg administered as single dose. The note with it: in vivo.
Series [19] is described as follows: in vivo. Particulars: female, beagle, dog, po, 50 mg/kg.
Description: Cmax in female beagle dog at 50 mg/kg, po
Series [20] in a line: in vivo. The note with it: female, Lister hooded, rat, po, 50 mg/kg.
Description: Oral bioavailability in female lister hooded rat at 50 mg/kg administered as single dose
The nature of series [21]: AUC (0 to infinity) in human at 400 mg administered as single dose. Particulars: plasma.
Series [22] is described as follows: in vivo. The note with it: female, Lister hooded, rat, po, 50 mg/kg. The source holds these as a separate data set.
Description: Tmax in female lister hooded rat at 50 mg/kg, po
Series [23] in a line: in vivo. Particulars: male, beagle, dog, po, 50 mg/kg. This is another data set of the same source.
Description: Cmax in male beagle dog at 50 mg/kg, po
Series [24] can be described thus: in vivo. The note with it: male, Lister hooded, rat, po, 50 mg/kg. The source holds these as a separate data set.
Description: Cmax in male lister hooded rat at 50 mg/kg, po
A short description of series [25]: in vivo. The note with it: male, Lister hooded, rat, plasma, po, 50 mg/kg.
Description: AUC in male lister hooded rat at 50 mg/kg, po
The nature of series [26]: Cmax in human at 400 mg administered as single dose. The note with it: in vivo.
Series [27] can be described thus: in vivo. The note with it: female, Lister hooded, rat, po, 50 mg/kg. This is another data set of the same source.
Description: Cmax in female lister hooded rat at 50 mg/kg, po
Series [28] in a line: Half life in male lister hooded rat at 50 mg/kg, po. Particulars: in vivo.
The nature of series [29]: in vivo. Particulars: female, beagle, dog, plasma, po, 50 mg/kg.
Description: AUC in female beagle dog at 50 mg/kg, po
Series [30] is described as follows: in vivo. The note with it: female, Lister hooded, rat, plasma, po, 50 mg/kg.
Description: AUC in female lister hooded rat at 50 mg/kg, po
Series [31] can be described thus: in vivo. The note with it: male, Lister hooded, rat, po, 50 mg/kg. The source holds these as a separate data set.
Description: Tmax in male lister hooded rat at 50 mg/kg, po
A short description of series [32]: in vivo. The note with it: female, beagle, dog, po, 50 mg/kg. This is another data set of the same source.
Description: Tmax in female beagle dog at 50 mg/kg, po
A short description of series [33]: Half life in female beagle dog at 50 mg/kg, po. The note with it: in vivo.

A word on the EC50: it is the midpoint of the concentration-response curve. Turning to `CCOc1noc2cc(OCCCC3CCN(c4ccc(Cl)nn4)CC3)ccc12`, the values for the EC50 in [1] and in series [2] were 9 ng/mL (≈ 0.0216 µM) and 3 ng/mL (≈ 0.0072 µM), respectively.
On to `CCOc1nsc2cc(OCCC3CCN(c4ccc(C)nn4)CC3)ccc12`, for which the EC50 came out at 29 ng/mL (≈ 0.0728 µM) in series [1] and 3 ng/mL (≈ 0.00753 µM) in series [2].
Regarding `CCOC(=O)c1ccc(OCCC2CCN(c3ccc(C)nn3)CC2)cc1` [PIRODAVIR], the EC50 in [3] stood at 11.1 ng/mL (≈ 0.03 µM); in [4], 2.6 ng/mL (≈ 0.00704 µM); in [5], 2.3 ng/mL (≈ 0.00623 µM); in series [6] it was 5.6 ng/mL (≈ 0.0152 µM); in [1], 4 ng/mL (≈ 0.0108 µM); in [9] it was 20.6 ng/mL (≈ 0.0558 µM). Further, the EC50 in [11] is 4 ng/mL (≈ 0.0108 µM); in series [2], 3 ng/mL (≈ 0.00812 µM). The “Ratio EC50” value in series [7] was 2.4; in series [8], 8.1; in series [10] it was 2.8.
Consider `CCCOc1noc2cc(OCCC3CCN(c4ccc(C)nn4)CC3)ccc12`, for which the EC50 in series [1] is 29 ng/mL (≈ 0.0731 µM); in series [2] it was 3 ng/mL (≈ 0.00757 µM).
On the same counts, the results for `CCCc1noc2cc(OCCC3CCN(c4ccc(C)nn4)CC3)ccc12` are 13 ng/mL (≈ 0.0342 µM) and 84 ng/mL (≈ 0.221 µM).
What is called half-life is the time needed for the level to fall by half in the phase considered. A lower half-life goes with rapid decline. The term bioavailability denotes the share of a dose that reaches the circulation, judged against a reference dose that is usually intravenous. A higher bioavailability goes with much systemic uptake. As usually defined, the AUC is concentration integrated over time. A higher AUC goes with more exposure. Usually Tmax stands for the time from dosing to the highest level. Usually Cmax stands for the highest concentration seen after dosing. As usually defined, the AUC(0-inf) is the area under the concentration-time curve extrapolated to infinity. A low value points to less exposure. Turning to `CCOc1noc2cc(OCCC3CCN(c4ccc(C)nn4)CC3)ccc12` [VAPENDAVIR], the half-life is 18.3 h in series [12]; 46.4 h in series [13]; 11.8 h in [17]; 51.6 h in series [28]; 15.9 h in [33]. Also, the bioavailability in series [14] was 94%; in series [20] it was 95%. The AUC worked out at 202 µg·h/mL in [15], 483 µg·h/mL in [25], 121 µg·h/mL in [29] and 489 µg·h/mL in series [30]. The Tmax came out at 14.7 h in series [16]; 1.03 h in series [18]; 11.2 h in series [22]; 16 h in [31]; 7.7 h in [32]. For the same compound, the Cmax was determined as 6100 ng/mL in series [19]; 11000 ng/mL in series [23]; 22500 ng/mL in series [24]; 1890 ng/mL in series [26]; 17700 ng/mL in [27]. The AUC(0-inf) in [21] worked out at 13.8 µg·h/mL. Further, in [2], the EC50 worked out at 1 ng/mL (≈ 0.00261 µM).
On to `Cc1cc(CCCOc2c(C)cc(-c3noc(C(F)(F)F)n3)cc2C)on1` [PLECONARIL], for which the EC50 in series [3] is 224 ng/mL (≈ 0.588 µM); in series [4] it was 33.8 ng/mL (≈ 0.0886 µM); in [5] it was 23.2 ng/mL (≈ 0.0608 µM); in series [6], 49.2 ng/mL (≈ 0.129 µM); in series [9], 388 ng/mL (≈ 1.02 µM); in series [11] it was 37.4 ng/mL (≈ 0.0981 µM). Moreover, the “Ratio EC50” value is listed as 2.1 in series [7], 11.5 in series [8] and 6 in series [10].
`CCOC(=O)/C=C/[C@H](C[C@@H]1CCNC1=O)NC(=O)[C@@H](CC(=O)[C@@H](NC(=O)c1cc(C)on1)C(C)C)Cc1ccc(F)cc1` [RUPINTRIVIR]: the EC50 in series [3] was determined as 1.2 ng/mL (≈ 0.002 µM); in [4], 2 ng/mL (≈ 0.00334 µM); in series [5], 3 ng/mL (≈ 0.00501 µM); in [6], 1.5 ng/mL (≈ 0.00251 µM); in [9], 1.2 ng/mL (≈ 0.002 µM); in series [11], 2 ng/mL (≈ 0.00334 µM). The “Ratio EC50” value worked out at 2 in series [7], 1.7 in series [8] and 1.7 in series [10].
For the compound `CCc1noc2cc(OCCC3CCN(c4ccc(C)nn4)CC3)ccc12`, the EC50 in series [1] was 88 ng/mL (≈ 0.24 µM); in [2], 24 ng/mL (≈ 0.0655 µM).
On the same counts, the results for `CCOc1noc2cc(OCCC3CCN(c4ccc(Cl)nn4)CC3)ccc12` are 19 ng/mL (≈ 0.0472 µM) and 3 ng/mL (≈ 0.00745 µM).
